# What was measured:
# Test in all cases: KinaseProfiler Assay
# NEK3(h) = biological target: T1, NEK3(h) (Homo sapiens, UniProt P51956)
# T1 sequence (P51956 1-506): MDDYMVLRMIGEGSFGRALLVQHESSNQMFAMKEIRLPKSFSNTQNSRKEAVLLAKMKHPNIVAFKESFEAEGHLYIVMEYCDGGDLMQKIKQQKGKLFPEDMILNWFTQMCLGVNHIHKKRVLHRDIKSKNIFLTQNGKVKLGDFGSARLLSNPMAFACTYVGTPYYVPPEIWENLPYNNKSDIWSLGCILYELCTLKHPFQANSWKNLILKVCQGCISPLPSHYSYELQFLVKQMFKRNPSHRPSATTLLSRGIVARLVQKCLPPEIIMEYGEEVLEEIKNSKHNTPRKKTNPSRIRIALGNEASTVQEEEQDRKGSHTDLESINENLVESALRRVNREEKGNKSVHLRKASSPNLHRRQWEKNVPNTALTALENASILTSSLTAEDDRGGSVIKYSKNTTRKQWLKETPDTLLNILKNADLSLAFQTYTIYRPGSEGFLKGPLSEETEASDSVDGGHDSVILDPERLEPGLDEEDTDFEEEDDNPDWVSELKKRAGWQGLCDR
# CK1γ1(h) = CK1γ1(h) (Homo sapiens, UniProt Q9HCP0)
# Chain of CK1γ1(h) (Q9HCP0 whole entry): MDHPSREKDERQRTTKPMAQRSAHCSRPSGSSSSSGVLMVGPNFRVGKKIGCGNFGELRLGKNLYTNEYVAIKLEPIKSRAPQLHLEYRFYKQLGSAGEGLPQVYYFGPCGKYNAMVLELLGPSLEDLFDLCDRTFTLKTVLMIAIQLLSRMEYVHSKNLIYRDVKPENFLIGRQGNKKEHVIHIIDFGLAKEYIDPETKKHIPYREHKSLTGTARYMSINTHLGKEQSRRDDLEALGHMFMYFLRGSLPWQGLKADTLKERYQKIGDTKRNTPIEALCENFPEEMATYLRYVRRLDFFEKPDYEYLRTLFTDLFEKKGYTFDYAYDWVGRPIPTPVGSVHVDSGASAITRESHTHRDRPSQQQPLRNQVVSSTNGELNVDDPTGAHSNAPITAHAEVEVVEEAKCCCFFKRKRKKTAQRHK
# CK1γ3(h) = CK1γ3(h) (Homo sapiens, UniProt Q9Y6M4)
# Chain of CK1γ3(h) (Q9Y6M4 whole entry): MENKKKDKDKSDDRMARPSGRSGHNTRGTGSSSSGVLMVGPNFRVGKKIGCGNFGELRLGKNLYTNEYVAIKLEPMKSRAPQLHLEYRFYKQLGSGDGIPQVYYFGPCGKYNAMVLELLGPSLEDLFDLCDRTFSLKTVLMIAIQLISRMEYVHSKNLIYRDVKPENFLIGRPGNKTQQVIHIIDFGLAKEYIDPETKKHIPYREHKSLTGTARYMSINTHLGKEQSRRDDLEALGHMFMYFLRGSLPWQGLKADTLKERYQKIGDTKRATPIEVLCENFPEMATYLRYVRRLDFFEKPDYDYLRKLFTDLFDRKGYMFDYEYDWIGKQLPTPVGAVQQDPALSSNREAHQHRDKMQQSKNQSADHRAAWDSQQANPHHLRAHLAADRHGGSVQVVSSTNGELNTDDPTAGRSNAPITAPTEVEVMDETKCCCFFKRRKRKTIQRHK
# Met(h) = Met(h) (Homo sapiens, UniProt P08581)
# Chain of Met(h) (P08581 25-1390): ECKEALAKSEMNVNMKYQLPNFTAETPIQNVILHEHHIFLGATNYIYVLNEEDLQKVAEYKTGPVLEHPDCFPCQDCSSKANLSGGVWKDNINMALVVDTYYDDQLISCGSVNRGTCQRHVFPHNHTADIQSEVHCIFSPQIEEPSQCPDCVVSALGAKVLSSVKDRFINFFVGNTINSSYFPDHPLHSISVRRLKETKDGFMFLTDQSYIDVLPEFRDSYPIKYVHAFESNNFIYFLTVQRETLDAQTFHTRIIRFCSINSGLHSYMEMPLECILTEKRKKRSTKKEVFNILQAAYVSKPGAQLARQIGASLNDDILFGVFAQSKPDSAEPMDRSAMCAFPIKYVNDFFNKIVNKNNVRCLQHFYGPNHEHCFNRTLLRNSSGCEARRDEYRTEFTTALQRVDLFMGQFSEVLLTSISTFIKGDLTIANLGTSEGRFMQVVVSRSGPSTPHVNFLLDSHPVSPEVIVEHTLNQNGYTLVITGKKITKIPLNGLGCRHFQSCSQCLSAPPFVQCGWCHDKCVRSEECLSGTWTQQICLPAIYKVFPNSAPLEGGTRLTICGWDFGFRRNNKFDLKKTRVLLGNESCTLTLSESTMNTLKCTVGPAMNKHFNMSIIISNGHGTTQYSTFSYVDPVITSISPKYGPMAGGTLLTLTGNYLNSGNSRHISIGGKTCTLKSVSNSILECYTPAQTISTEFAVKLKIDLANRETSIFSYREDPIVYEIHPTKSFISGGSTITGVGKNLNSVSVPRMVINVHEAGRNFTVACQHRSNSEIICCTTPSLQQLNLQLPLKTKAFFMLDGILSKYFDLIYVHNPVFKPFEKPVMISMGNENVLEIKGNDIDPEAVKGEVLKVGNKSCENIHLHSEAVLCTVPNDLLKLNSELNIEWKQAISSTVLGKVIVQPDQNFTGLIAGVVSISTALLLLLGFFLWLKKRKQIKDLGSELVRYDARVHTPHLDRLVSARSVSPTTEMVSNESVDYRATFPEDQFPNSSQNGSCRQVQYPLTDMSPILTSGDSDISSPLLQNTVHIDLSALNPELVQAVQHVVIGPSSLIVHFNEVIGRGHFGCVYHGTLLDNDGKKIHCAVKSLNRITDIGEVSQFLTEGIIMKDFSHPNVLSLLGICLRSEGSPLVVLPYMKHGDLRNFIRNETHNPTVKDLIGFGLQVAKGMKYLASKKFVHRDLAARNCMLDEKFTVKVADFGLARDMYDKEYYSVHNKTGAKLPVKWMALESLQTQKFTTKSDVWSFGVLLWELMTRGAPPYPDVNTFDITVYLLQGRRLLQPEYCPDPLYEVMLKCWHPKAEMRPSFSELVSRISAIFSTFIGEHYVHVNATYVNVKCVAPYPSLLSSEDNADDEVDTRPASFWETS
# FGFR1(V561M)(h) = FGFR1(V561M)(h) (Homo sapiens, UniProt P11362, V561M)
# Chain of FGFR1(V561M)(h) (P11362 22-822 V561M): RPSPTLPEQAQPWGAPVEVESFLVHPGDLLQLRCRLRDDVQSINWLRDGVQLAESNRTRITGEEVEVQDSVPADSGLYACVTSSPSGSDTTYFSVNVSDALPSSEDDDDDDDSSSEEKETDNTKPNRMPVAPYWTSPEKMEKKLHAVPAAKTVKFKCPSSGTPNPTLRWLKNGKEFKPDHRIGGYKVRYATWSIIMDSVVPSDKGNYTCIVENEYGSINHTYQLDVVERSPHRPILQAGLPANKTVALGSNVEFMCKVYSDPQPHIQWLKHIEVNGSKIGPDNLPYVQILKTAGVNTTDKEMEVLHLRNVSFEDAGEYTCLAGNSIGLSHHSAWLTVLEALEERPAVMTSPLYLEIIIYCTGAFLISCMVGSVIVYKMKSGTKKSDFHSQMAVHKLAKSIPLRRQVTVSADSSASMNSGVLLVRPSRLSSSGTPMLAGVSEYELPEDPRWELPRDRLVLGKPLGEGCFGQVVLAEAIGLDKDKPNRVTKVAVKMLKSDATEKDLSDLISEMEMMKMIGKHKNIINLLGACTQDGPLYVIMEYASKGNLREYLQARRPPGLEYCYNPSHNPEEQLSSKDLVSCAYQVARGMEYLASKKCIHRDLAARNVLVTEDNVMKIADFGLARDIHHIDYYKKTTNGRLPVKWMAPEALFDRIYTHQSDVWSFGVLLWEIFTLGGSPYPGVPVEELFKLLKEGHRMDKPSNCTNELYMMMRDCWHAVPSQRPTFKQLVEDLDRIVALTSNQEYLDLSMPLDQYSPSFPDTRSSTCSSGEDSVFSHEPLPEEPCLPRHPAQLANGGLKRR
# CaMKIV(h) = biological target: T2, CaMKIV(h) (Homo sapiens, UniProt Q16566)
# T2 sequence (Q16566 1-473): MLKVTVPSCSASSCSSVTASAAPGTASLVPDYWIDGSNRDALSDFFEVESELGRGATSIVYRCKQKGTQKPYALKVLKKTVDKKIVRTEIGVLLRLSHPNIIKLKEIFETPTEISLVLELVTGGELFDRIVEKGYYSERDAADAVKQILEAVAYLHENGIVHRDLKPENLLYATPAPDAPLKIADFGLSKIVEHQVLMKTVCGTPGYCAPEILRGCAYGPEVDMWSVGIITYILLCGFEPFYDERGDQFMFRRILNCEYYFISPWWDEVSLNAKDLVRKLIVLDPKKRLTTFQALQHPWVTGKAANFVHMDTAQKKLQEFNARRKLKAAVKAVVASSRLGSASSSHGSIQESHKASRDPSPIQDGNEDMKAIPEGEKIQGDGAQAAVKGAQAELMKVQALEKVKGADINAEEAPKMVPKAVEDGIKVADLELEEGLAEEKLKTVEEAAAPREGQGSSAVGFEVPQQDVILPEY
# SAPK2b(h) = SAPK2b(h) (Homo sapiens, UniProt Q15759)
# Chain of SAPK2b(h) (Q15759 whole entry): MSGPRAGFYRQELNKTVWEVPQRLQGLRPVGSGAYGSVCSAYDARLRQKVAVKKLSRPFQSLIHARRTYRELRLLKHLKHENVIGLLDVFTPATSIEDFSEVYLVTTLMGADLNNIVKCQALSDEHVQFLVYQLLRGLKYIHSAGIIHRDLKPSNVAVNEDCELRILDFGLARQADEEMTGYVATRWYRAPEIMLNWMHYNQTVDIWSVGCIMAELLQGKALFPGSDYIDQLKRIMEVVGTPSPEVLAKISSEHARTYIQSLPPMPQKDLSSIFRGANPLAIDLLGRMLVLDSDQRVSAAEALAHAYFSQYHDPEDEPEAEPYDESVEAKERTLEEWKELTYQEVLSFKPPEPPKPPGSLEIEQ
# PAK3(h) = PAK3(h) (Homo sapiens, UniProt O75914)
# Chain of PAK3(h) (O75914 whole entry): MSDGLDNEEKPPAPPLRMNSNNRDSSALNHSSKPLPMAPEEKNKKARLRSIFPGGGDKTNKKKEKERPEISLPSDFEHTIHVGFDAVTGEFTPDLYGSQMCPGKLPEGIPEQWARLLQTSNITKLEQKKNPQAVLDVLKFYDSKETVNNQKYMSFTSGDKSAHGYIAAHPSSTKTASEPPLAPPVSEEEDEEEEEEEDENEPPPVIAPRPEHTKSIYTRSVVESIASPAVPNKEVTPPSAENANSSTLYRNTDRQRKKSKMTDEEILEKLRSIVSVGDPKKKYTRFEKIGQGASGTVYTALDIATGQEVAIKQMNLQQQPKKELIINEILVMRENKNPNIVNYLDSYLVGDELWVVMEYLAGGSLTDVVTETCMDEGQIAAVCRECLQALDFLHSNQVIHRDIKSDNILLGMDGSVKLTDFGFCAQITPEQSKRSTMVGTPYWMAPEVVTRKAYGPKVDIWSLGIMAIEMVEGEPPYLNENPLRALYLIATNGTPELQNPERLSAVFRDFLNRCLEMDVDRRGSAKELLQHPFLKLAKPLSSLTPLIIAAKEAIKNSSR
# GRK7(h) = biological target: T3, GRK7(h) (Homo sapiens, UniProt Q8WTQ7)
# T3 sequence (Q8WTQ7 1-553): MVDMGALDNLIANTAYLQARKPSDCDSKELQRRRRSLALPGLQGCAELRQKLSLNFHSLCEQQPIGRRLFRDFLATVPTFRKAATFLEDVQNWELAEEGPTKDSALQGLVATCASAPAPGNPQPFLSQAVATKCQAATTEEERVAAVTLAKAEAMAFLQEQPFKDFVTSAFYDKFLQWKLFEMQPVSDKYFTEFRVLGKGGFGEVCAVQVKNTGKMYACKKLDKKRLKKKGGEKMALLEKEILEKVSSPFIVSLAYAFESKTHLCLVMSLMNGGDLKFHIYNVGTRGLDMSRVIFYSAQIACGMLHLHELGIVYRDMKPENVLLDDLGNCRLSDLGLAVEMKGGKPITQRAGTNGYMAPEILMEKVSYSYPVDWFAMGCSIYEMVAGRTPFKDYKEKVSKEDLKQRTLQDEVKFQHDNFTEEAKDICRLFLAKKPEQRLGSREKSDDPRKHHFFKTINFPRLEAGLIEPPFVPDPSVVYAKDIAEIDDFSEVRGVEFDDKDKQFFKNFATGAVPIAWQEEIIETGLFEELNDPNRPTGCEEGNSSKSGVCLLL
# PKCγ(h) = PKCγ(h) (Homo sapiens, UniProt P05129)
# CK1(y) = biological target: CK1(y)
compound,measurement,setting,value
"CC(C)CCC(=O)[C@]1(O)C(O)=C(C(=O)C(C)C)C(=O)[C@H]1CCC(C)C [TH2, tetrahydroiso-cohumulone]",kinase inhibition,NEK3(h); 1 μg/ml,99% of control
same,kinase inhibition,NEK3(h); 5 μg/ml,102% of control
same,kinase inhibition,NEK3(h); 25 μg/ml,97% of control
same,kinase inhibition,NEK3(h); 50 μg/ml,94% of control
same,kinase inhibition,NEK3(h); 100 μg/ml,92% of control
same,kinase inhibition,CK1γ1(h); 1 μg/ml,100% of control
same,kinase inhibition,CK1γ1(h); 5 μg/ml,101% of control
same,kinase inhibition,CK1γ1(h); 25 μg/ml,88% of control
same,kinase inhibition,CK1γ1(h); 50 μg/ml,73% of control
same,kinase inhibition,CK1γ1(h); 100 μg/ml,48% of control
same,kinase inhibition,CK1γ3(h); 1 μg/ml,96% of control
same,kinase inhibition,CK1γ3(h); 5 μg/ml,91% of control
same,kinase inhibition,CK1γ3(h); 25 μg/ml,83% of control
same,kinase inhibition,CK1γ3(h); 50 μg/ml,43% of control
same,kinase inhibition,CK1γ3(h); 100 μg/ml,34% of control
same,kinase inhibition,Met(h); 1 μg/ml,114% of control
same,kinase inhibition,Met(h); 5 μg/ml,113% of control
same,kinase inhibition,Met(h); 25 μg/ml,97% of control
same,kinase inhibition,Met(h); 50 μg/ml,83% of control
same,kinase inhibition,Met(h); 100 μg/ml,61% of control
same,kinase inhibition,FGFR1(V561M)(h); 1 μg/ml,105% of control
same,kinase inhibition,FGFR1(V561M)(h); 5 μg/ml,107% of control
same,kinase inhibition,FGFR1(V561M)(h); 25 μg/ml,95% of control
same,kinase inhibition,FGFR1(V561M)(h); 50 μg/ml,79% of control
same,kinase inhibition,FGFR1(V561M)(h); 100 μg/ml,75% of control
same,kinase inhibition,CaMKIV(h); 1 μg/ml,117% of control
same,kinase inhibition,CaMKIV(h); 5 μg/ml,126% of control
same,kinase inhibition,CaMKIV(h); 25 μg/ml,86% of control
same,kinase inhibition,CaMKIV(h); 50 μg/ml,69% of control
same,kinase inhibition,CaMKIV(h); 100 μg/ml,52% of control
same,kinase inhibition,SAPK2b(h); 1 μg/ml,117% of control
same,kinase inhibition,SAPK2b(h); 5 μg/ml,110% of control
same,kinase inhibition,SAPK2b(h); 25 μg/ml,108% of control
same,kinase inhibition,SAPK2b(h); 50 μg/ml,108% of control
same,kinase inhibition,SAPK2b(h); 100 μg/ml,111% of control
same,kinase inhibition,PAK3(h); 1 μg/ml,103% of control
same,kinase inhibition,PAK3(h); 5 μg/ml,102% of control
same,kinase inhibition,PAK3(h); 25 μg/ml,49% of control
same,kinase inhibition,PAK3(h); 50 μg/ml,47% of control
same,kinase inhibition,PAK3(h); 100 μg/ml,40% of control
same,kinase inhibition,GRK7(h); 1 μg/ml,110% of control
same,kinase inhibition,GRK7(h); 5 μg/ml,95% of control
same,kinase inhibition,GRK7(h); 25 μg/ml,102% of control
same,kinase inhibition,GRK7(h); 50 μg/ml,91% of control
same,kinase inhibition,GRK7(h); 100 μg/ml,99% of control
same,kinase inhibition,PKCγ(h); 1 μg/ml,102% of control
same,kinase inhibition,PKCγ(h); 5 μg/ml,107% of control
same,kinase inhibition,PKCγ(h); 25 μg/ml,101% of control
same,kinase inhibition,PKCγ(h); 50 μg/ml,91% of control
same,kinase inhibition,PKCγ(h); 100 μg/ml,99% of control
same,kinase inhibition,CK1(y); 25 μg/ml,110% of control
same,kinase inhibition,CK1(y); 50 μg/ml,110% of control
same,kinase inhibition,CK1(y); 100 μg/ml,100% of control
